Results from US4895727A, “Pharmaceutical vehicles for exhancing penetration and retention in the skin” (priority 1985, dated 1990).
Where two headings read alike, the source gives them in different places.

Tests used:
[1] = system: human breast adenocarcinoma, MX-1
[2] = background; cited from earlier work
[3] = 0.257 moles per 100 grams; general statement; cited from earlier work
[4] = number of animals of five, single intratumor injection 0.01 ml, standard dosage level

| Molecule | Premature Death ([1]; in vivo) | Tumor at Death ([1]; in vivo) | further results |
| --- | --- | --- | --- |
| CC(Cc1ccc(O)c(O)c1)C(C)Cc1ccc(O)c(O)c1 (racemic) [dl-NDGA (no Zn), nordihydroguaiaretic acid] | 0 | 1 | Tumor Free 60 Days [1, 4]: 4; Tumor Recurrence [1, 4]: 0 |
| Oc1ccc(CCc2ccc(CCc3ccc(O)c(O)c3)cc2)cc1O [1,4-bis(3,4-dihydroxyphenethyl)-benzene] | 0 | – | – |
| CC(=O)Oc1ccc(C=CC=Cc2ccccc2)cc1OC(C)=O [1-(3,4-diacetoxyphenyl)-4-phenyl-buta-1,3-diene] | 0 | – | – |
| CC(C)(C)c1cccc(O)c1 [3-tertbutylphenol (no Zn), 3-tertbutylphenol] | 3 | – | – |
| COc1cc(C2c3cc4c(cc3C(O)C3COC(=O)C23)OCO4)cc(OC)c1O (centres unmarked) [4'-demethylepipodophyllotoxin (no Zn), 4'-demethylepipodophyllotoxin] | 0 | 4 | Tumor Free 60 Days ([1]; in vivo): 1; Tumor Recurrence ([1]; in vivo): 3 |
| COc1cc(C2c3cc4c(cc3C(OC3OC5COC(c6cccs6)OC5C(O)C3O)C3COC(=O)C23)OCO4)cc(OC)c1O (stereo not drawn) [VM-26 (no Zn), epipodophyllotoxin beta-D thenylidene glucopyranoside] | 0 | 5 | Tumor Free 60 Days ([1]; in vivo): 0; Tumor Recurrence ([1]; in vivo): 0 |
| COc1cc(C2c3cc4c(cc3C(OC3OC5COC(C)OC5C(O)C3O)C3COC(=O)C23)OCO4)cc(OC)c1O (stereo not drawn) [VP-16 (no Zn), epipodophyllotoxin beta-D ethylidene glucopyranoside] | 2 | 3 | Tumor Free 60 Days ([1]; in vivo): 2; Tumor Recurrence ([1]; in vivo): 0 |
| COc1cccc2c1C(=O)c1c(O)c3c(c(O)c1C2=O)C[C@@](O)(C(=O)CO)C[C@@H]3O[C@H]1C[C@H](N)[C@H](O)[C@H](C)O1 [adriamycin (no Zn), adriamycin] | 1 | – | – |
| Oc1ncnc2[nH]ncc12 [allopurinol (no Zn), allopurinol] | 0 | – | – |
| O=C(O)CCCCCCCC(=O)O [azelaic acid (no Zn), azelaic acid] | 0 | – | – |
| O=P1(N(CCCl)CCCl)NCCCO1 (centres unmarked) [cyclophosphamide (no Zn), cyclophosphamide] | 0 | 5 | Tumor Free 60 Days [1, 4]: 0; Tumor Recurrence [1, 4]: 0 |
| COc1cccc2c1C(=O)c1c(O)c3c(c(O)c1C2=O)C[C@@](O)(C(C)=O)C[C@@H]3O[C@H]1C[C@H](N)[C@H](O)[C@H](C)O1 [daunomycin (no Zn), daunomycin] | 2 | – | – |
| CC/C(=C(/CC)c1ccc(O)cc1)c1ccc(O)cc1 [diethylstilbestrol (no Zn), diethylstilbestrol] | 2 | – | – |
| O=C1c2c(O)cccc2Cc2cccc(O)c21 [dithranol (no Zn), dithranol] | 0 | – | – |
| CN(Cc1cnc2nc(N)nc(N)c2n1)c1ccc(C(=O)N[C@@H](CCC(=O)O)C(=O)O)cc1 [methotrexate] | – | – | systemic toxicity [2]: systemically toxic |
| CO[C@@]12[C@H](COC(N)=O)C3=C(C(=O)C(C)=C(N)C3=O)N1C[C@@H]1N[C@@H]12 [mitomycin (no Zn), mitomycin] | 4 | – | – |
| O=C(O)C=Cc1ccc(O)cc1 [p-hydroxycinnamic acid (no Zn), p-hydroxycinnamic acid] | 0 | – | – |
| N.N.[Cl][Pt][Cl] [platinum cis-diamine-dichloride (no Zn), platinum cis-diamine-dichloride] | 0 | 4 | Tumor Free 60 Days [1, 4]: 1; Tumor Recurrence [1, 4]: 0 |
| [Cl-].[Cl-].[Zn+2] [zinc chloride] | – | – | concentration causing tissue destruction when topically applied [3]: ≥ 35% |
| norisoguaiacin [norisoguaiacin (no Zn)] | 1 | 1 | Tumor Free 60 Days [1, 4]: 2; Tumor Recurrence [1, 4]: 0 |
